The values that follow come from patent US11629154B2, “Tetrahydropyranooxazine derivatives having selective BACE1 inhibitory activity” (SHIONOGI & CO., LTD., priority 2018, dated 2023).

For assay [1], the target named is recombinant BACE2 protein (Homo sapiens (Human), UniProt Q9Y5Z0). The experiment in a line: BACE2 biochemical FRET based assay. The conditions noted are these: pH 5.0. From the text:
(2) BACE2 Biochemical FRET Based Assay
(§1) This assay is a Fluorescence Resonance Energy Transfer Assay (FRET) based assay. The substrate for this assay contains the ‘Swedish’ Lys-Met/Asn-Leu mutation of the amyloid precursor protein (APP) beta-secretase cleavage site. This substrate also contains two fluorophores: (7-methoxycoumarin-4-yl) acetic acid (Mca) is a fluorescent donor with excitation wavelength at 320 nm and emission at 405 nm and 2,4-dinitrophenol (Dnp) is a proprietary quencher acceptor. […] Upon cleavage by the beta-secretase, the fluorophore Mca is separated from the quenching group Dnp, restoring the full fluorescence yield of the donor. The increase in fluorescence is linearly related to the rate of proteolysis.
Briefly in a 384-well format recombinant BACE2 protein in a final concentration of 0.4 μg/mL was incubated for 450 minutes at room temperature with 10 μM substrate in incubation buffer (final concentrations: 33.3 mM Citrate buffer pH 5.0, 0.033% PEG, 2% DMSO) in the absence or presence of compound. Next the amount of proteolysis was directly measured by fluorescence measurement at T=0 and T=450 (excitation at 320 nm and emission at 405 nm). Results were expressed in RFU (Relative Fluorescence Units), as difference between T450 and TO.
(§2) A best-fit curve was fitted by a minimum sum of squares method to the plot of % Controlmin versus compound concentration. From this an IC50 value (inhibitory concentration causing 50% inhibition of activity) can be obtained.
(§3) LC=Median of the low control values
(§4) =Low control: Reaction without enzyme
(§5) HC=Median of the High control values

The target of assay [2] is recombinant BACE1 protein (Homo sapiens (Human), UniProt P56817). The experiment in a line: BACE1 biochemical FRET based assay. Particulars: for Selectivity: BACE1 versus BACE2; for IC50: FRET, pH 5.0.
Excerpt: (1) BACE1 Biochemical FRET Based Assay
as §1, with “this assay is an APP derived 13 amino acids peptide that contains the” for “this assay contains the”, “protein (APP) beta-site secretase cleavage site.” for “protein (APP) beta-secretase cleavage site.”, “cleavage by BACE1, the fluorophore” for “cleavage by the beta-secretase, the fluorophore”
Briefly in a 384-well format recombinant BACE1 protein in a final concentration of 0.04 μg/mL was incubated for 450 minutes at room temperature with […] substrate in incubation buffer (final concentrations: 33.3 mM Citrate buffer pH 5.0, 0.033% PEG, 3% DMSO) in the absence or presence of compound. Next the amount of proteolysis was directly measured by fluorescence measurement at T=0′-120′ and T=450′ (excitation at 320 nm and emission at 405 nm). Results were expressed in RFU (Relative Fluorescence Units), as difference between T450 and Tx (Tx is chosen depending on the reaction speed between 0 and 120 minutes).
as §2, §3, §4, §5
=High Control: Reaction with enzyme % Effect=100−[(sample−LC)/(HC−LC)*100] % Control=(sample/HC)*100 % Controlmin=(sample−LC)/(HC−LC)*100

The IC50 is the midpoint of a concentration-inhibition curve.

Molecules are shown by their SMILES.

recombinant BACE2 protein, sequence (Q9Y5Z0 63-518): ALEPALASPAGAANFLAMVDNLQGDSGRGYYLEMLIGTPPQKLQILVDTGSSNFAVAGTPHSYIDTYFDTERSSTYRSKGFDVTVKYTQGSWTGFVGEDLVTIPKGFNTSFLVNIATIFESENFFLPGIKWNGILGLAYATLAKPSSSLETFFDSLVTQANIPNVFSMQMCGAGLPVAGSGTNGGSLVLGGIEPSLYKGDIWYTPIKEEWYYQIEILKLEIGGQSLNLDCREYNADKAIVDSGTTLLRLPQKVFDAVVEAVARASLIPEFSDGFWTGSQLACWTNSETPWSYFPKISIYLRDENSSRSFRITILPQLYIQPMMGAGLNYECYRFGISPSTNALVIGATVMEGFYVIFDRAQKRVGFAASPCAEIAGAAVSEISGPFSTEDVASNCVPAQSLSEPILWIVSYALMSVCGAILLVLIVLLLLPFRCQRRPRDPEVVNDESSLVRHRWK
recombinant BACE1 protein, sequence (P56817 46-501): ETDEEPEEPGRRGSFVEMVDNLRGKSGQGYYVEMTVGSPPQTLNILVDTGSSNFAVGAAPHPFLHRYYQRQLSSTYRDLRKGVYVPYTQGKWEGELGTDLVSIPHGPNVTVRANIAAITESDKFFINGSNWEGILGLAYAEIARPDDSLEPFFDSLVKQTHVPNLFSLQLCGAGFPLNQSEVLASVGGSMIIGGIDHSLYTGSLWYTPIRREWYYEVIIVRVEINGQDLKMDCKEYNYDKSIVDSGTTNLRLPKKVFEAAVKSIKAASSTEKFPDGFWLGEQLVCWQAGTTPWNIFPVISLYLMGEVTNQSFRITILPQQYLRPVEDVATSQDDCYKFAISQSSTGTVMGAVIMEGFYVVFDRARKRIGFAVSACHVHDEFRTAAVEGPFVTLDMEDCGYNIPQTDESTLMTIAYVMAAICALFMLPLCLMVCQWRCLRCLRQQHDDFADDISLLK

Regarding `CC[C@@H]1OCC[C@H]2OC(N)=N[C@](CF)(c3cc(NC(=O)c4cnc(OCF)cn4)ccc3F)[C@@H]12` [Compound I-009], the IC50 in assay [1] stood at 692 nM. In assay [2], the Selectivity is 44.7 and the half-inhibitory concentration (IC50) turned out to be 15.5 nM.

Regarding `NC1=N[C@](CF)(c2cc(NC(=O)c3cnc(OCF)cn3)ccc2F)[C@H]2[C@H](CF)OCC[C@H]2O1` [Compound I-010], the half-maximal inhibitory concentration (IC50) in assay [1] came to 457 nM. Besides, in assay [2], the Selectivity is given as 42.7 and the IC50 was 10.7 nM.

As for `C[C@@H]1OCC[C@H]2OC(N)=N[C@](CF)(c3cc(NC(=O)c4cnc(OCF)cn4)ccc3F)[C@@H]12` [Compound I-011], the concentration for half-maximal inhibition (IC50) in assay [1] was determined as 417 nM. In assay [2], the Selectivity is recorded as 31.6 and the IC50 was determined as 13.2 nM.

Regarding `C[C@@H]1C[C@H]2OC(N)=N[C@](CF)(c3cc(NC(=O)c4cnc(OCF)cn4)cc(F)c3F)[C@H]2CO1` [Compound I-061], the half-maximal inhibitory concentration (IC50) in assay [1] came out at 933 nM. Moreover, in assay [2], the Selectivity is listed as 53.7 and the IC50 was 17.4 nM.

For `COc1cnc(C(=O)Nc2ccc(Cl)c([C@@]3(CF)N=C(N)O[C@@H]4C[C@@H](C)OC[C@@H]43)c2)cn1` [Compound I-068], the IC50 in assay [1] came to 275 nM. In assay [2], the Selectivity is given as 24.5 and the IC50 is 11.2 nM.

With `COc1cnc(C(=O)Nc2ccc(F)c([C@@]3(CF)N=C(N)O[C@@H]4C[C@@H](C)OC[C@@H]43)c2)cn1` [Compound I-069], the IC50 is 1440 nM in assay [1] and 11.7 nM in assay [2]. Besides, the Selectivity in assay [2] came to 123.

Turning to `C[C@H]1COC[C@H]2[C@@H]1OC(N)=N[C@]2(CF)c1cc(NC(=O)c2cnc(OCF)cn2)ccc1F` [Compound I-074], in assay [1], the IC50 was 155 nM. Moreover, in assay [2], the Selectivity worked out at 36.3 and the IC50 was 4.3 nM.

With `C[C@@H]1COC[C@H]2[C@@H]1OC(N)=N[C@]2(CF)c1cc(NC(=O)c2cnc(OCF)cn2)ccc1F` [Compound I-075], in assay [1], the IC50 worked out at 724 nM. For the same compound, in assay [2], the Selectivity turned out to be 27.5 and the IC50 worked out at 26 nM.

Consider `NC1=N[C@](CF)(c2cc(NC(=O)c3cnc(OCC(F)(F)F)cn3)ccc2F)[C@H]2COCC[C@H]2O1` [Compound I-077], for which the half-inhibitory concentration (IC50) turned out to be 1820 nM in assay [1] and 8.1 nM in assay [2]. Moreover, in assay [2], the Selectivity is listed as 223.

Take `NC1=N[C@](CF)(c2cc(NC(=O)c3ccc(OC(F)F)cn3)ccc2F)[C@H]2COCC[C@H]2O1` [Compound I-078]: the half-inhibitory concentration (IC50) in assay [1] was 245 nM; in assay [2], 9.8 nM. Moreover, the Selectivity in assay [2] stood at 25.1.

Turning to `NC1=N[C@](CF)(c2cc(NC(=O)c3cnc(OCC(F)F)cn3)ccc2F)[C@H]2COCC[C@H]2O1` [Compound I-079], the values for the half-maximal inhibitory concentration (IC50) in assay [1] and in assay [2] were 1000 nM and 18.6 nM, respectively. Besides, the Selectivity in assay [2] turned out to be 52.7.

As to `NC1=N[C@](CF)(c2cc(NC(=O)c3cnc(OCC4(F)CC4)cn3)ccc2F)[C@H]2COCC[C@H]2O1` [Compound I-086], in assay [1], the IC50 stood at 537 nM. For the same compound, in assay [2], the Selectivity is on record as 53.7 and the IC50 came out at 10 nM.

In the case of `C[C@@H]1C[C@H]2OC(N)=N[C@](CF)(c3cc(NC(=O)c4cnc(C(F)F)cn4)ccc3F)[C@H]2CO1` [Compound I-088], in assay [1], the IC50 turned out to be 617 nM. Also, in assay [2], the Selectivity is listed as 11.2 and the IC50 is 55 nM.

On to `C[C@@H]1C[C@H]2OC(N)=N[C@](CF)(c3cc(NC(=O)c4cnc(OC(F)F)cn4)ccc3F)[C@H]2CO1` [Compound I-089], for which the concentration for half-maximal inhibition (IC50) in assay [1] was found to be 550 nM; in assay [2] it was 9.8 nM. Further, the Selectivity in assay [2] is recorded as 56.2.

`CC[C@@H]1OCC[C@H]2OC(N)=N[C@](CF)(c3cc(NC(=O)c4cnc(OC(F)F)cn4)ccc3F)[C@@H]12` [Compound I-094]: in assay [1], the IC50 came to 417 nM. In assay [2], the Selectivity came out at 70.8 and the IC50 came out at 5.9 nM.

Consider `C[C@@H]1C[C@H]2OC(N)=N[C@](CF)(c3cc(NC(=O)c4ccc(C(F)(F)F)cn4)ccc3F)[C@H]2CO1` [Compound I-099], for which the 50% inhibitory concentration (IC50) in assay [1] worked out at 550 nM; in assay [2] it was 19.1 nM. Moreover, the Selectivity in assay [2] is 28.8.

On to `Cc1cc(C(F)(F)F)cnc1C(=O)Nc1ccc(F)c([C@@]2(CF)N=C(N)O[C@@H]3C[C@@H](C)OC[C@@H]32)c1` [Compound I-100], for which the IC50 in assay [1] was determined as 257 nM. In addition, in assay [2], the Selectivity came out at 15.5 and the half-inhibitory concentration (IC50) is 16.6 nM.

In the case of `C[C@@H]1C[C@H]2OC(N)=N[C@](CF)(c3cc(NC(=O)c4ncc(C(F)(F)F)cc4Cl)ccc3F)[C@H]2CO1` [Compound I-101], in assay [1], the IC50 is 398 nM. For the same compound, in assay [2], the Selectivity is given as 14.1 and the IC50 amounted to 28.2 nM.

Regarding `NC1=N[C@](CF)(c2cc(NC(=O)c3cnc(C(F)(F)F)cn3)ccc2F)[C@H]2COCC[C@H]2O1` [Compound I-102], in assay [1], the concentration for half-maximal inhibition (IC50) came out at 977 nM. Moreover, in assay [2], the Selectivity is on record as 28.8 and the 50% inhibitory concentration (IC50) came out at 33.9 nM.

`NC1=N[C@](CF)(c2cc(NC(=O)c3cnc(C(F)F)cn3)ccc2F)[C@H]2COCC[C@H]2O1` [Compound I-103]: the half-inhibitory concentration (IC50) came to 316 nM in assay [1] and 21.9 nM in assay [2]. Also, the Selectivity in assay [2] was 14.5.

On to `[2H]C([2H])([2H])Oc1cnc(C(=O)Nc2ccc(F)c([C@@]3(CF)N=C(N)O[C@@H]4CCOC[C@@H]43)c2)cn1` [Compound I-104], for which, in assay [1], the IC50 was 398 nM. Also, in assay [2], the Selectivity came out at 27.5 and the half-maximal inhibitory concentration (IC50) worked out at 14.5 nM.

In the case of `Cc1cc(C(F)(F)F)cnc1C(=O)Nc1ccc(F)c([C@@]2(CF)N=C(N)O[C@@H]3CCOC[C@@H]32)c1` [Compound I-106], in assay [1], the IC50 was 148 nM. In assay [2], the Selectivity was found to be 10.2 and the IC50 was determined as 14.2 nM.

As to `NC1=N[C@](CF)(c2cc(NC(=O)c3cnc(C(F)(F)F)cn3)ccc2F)[C@H]2COCC[C@H]2O1` [Compound I-107], the results for the concentration for half-maximal inhibition (IC50) in assay [1] and in assay [2] were 3390 nM and 53.7 nM, respectively. For the same compound, the Selectivity in assay [2] turned out to be 63.1.

Regarding `NC1=N[C@](CF)(c2cc(NC(=O)c3ncc(C(F)(F)F)cc3Cl)ccc2F)[C@H]2COCC[C@H]2O1` [Compound I-108], the IC50 in assay [1] was found to be 200 nM; in assay [2] it was 20 nM. Besides, the Selectivity in assay [2] was 10.0.

Consider `CCOc1cnc(C(=O)Nc2ccc(F)c([C@@]3(CF)N=C(N)O[C@@H]4CCOC[C@@H]43)c2)cn1` [Compound I-109], for which, in assay [1], the IC50 was determined as 417 nM. Besides, in assay [2], the Selectivity was determined as 18.6 and the IC50 turned out to be 22.4 nM.

With `NC1=N[C@](CF)(c2cc(NC(=O)c3cnc(OCF)cn3)ccc2F)[C@H]2COC3(CC3)C[C@H]2O1` [II-1], the IC50 in assay [1] turned out to be 977 nM. Besides, in assay [2], the Selectivity is on record as 44.7 and the IC50 is 21.9 nM.
